The results in this text go back to patent US20240082417A1, “PROTEIN-POLYMER DRUG CONJUGATES” (priority 2022, published 2024).

Non-standard residues stand in square brackets, D forms with d. Residues, ends and D or L forms follow the SMILES beside them. *: point of attachment. Dolaproine = CO[C@@H]([C@@H]1CCCN1)[C@@H](C)C(=O)O; Dil = CC[C@H](C)[C@H](NC)[C@@H](CC(=O)O)OC; NMe2Val = CC(C)[C@@H](C(=O)*)N(C)C; NH(3-hydroxypropyl) = OCCCN*

Data set [1] in a line: Tolerability of Auristatin F-hydroxypropylamide (MTD study). The class given is in vivo, mouse. The source says:
The vehicle control group received physiological saline.

Data set [2] addresses 5T4 antigen on the cell surface (A431 cells and MDA-MB-231-5T4 OE cells) (human) (UniProt Q13641). The data set is described as follows: flow cytometry (MFI) on 5T4-expressing cells at 5 µg/mL, anti-Fc-FITC detection. On the technique in general: A flow cytometer gives signals particle by particle.
UniProt Q13641, sequence (Q13641 32-420): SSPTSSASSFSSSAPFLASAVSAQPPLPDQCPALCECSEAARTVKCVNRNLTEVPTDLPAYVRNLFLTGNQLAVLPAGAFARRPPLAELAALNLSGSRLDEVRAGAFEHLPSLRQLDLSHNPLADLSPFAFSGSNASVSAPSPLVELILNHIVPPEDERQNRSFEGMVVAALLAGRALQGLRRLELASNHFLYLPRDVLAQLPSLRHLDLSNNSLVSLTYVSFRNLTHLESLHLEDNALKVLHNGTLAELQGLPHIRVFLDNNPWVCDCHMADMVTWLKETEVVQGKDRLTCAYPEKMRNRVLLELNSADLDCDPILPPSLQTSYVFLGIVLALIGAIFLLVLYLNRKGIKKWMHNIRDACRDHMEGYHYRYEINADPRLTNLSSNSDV

In the case of `CC[C@H](C)[C@@H]([C@@H](CC(=O)N1CCC[C@H]1[C@H](OC)[C@@H](C)C(=O)N[C@@H](Cc1ccccc1)C(=O)NCCCO)OC)N(C)C(=O)[C@@H](NC(=O)[C@H](C(C)C)N(C)C)C(C)C` [AF-HPA, auristatin F hydroxypropyl amide] (NMe2Val-V[Dil][Dolaproine]F-{NH(3-hydroxypropyl)}), the “Animals survived by the end of the study (Day 21)” value in data set [1] (single IV dose 3.2 mg/kg) was 2 out of 6. In addition, in data set [1] (single IV dose 4.7 mg/kg), the Tolerability entry was “exceeded the maximum tolerated dose”.
In turn, unrelated scFvFc fusion protein displayed a fold less binding than the anti-5T4 scFvFc molecules in data set [2] of 200 fold.
